According to article PMC12926979, “Ectopic, hepatic GLP-1R agonism enhances the weight loss efficacy of GLP-1 analogues” (Molecular Metabolism, 2026):

Experiments:
C57Bl6 mice = assay: Cardiovascular radiotelemetry (heart rate, mean arterial pressure); assay type: in vivo, mouse; details: Glp1r AAV treated mice; 0.5, 1 and 3 nmol/kg SC; Figure 2H
Description: Male C57Bl6 mice (8–10 weeks old) were anesthetized with isoflurane and surgically implanted with pressure transmitters (PA-C10, DSI), with the catheter inserted into the left carotid artery and the body of the transmitter between the outer skin layer and abdomen wall in the left flank of the mouse. After recovering, they were singly housed and monitored in their home cages. Mice were given control and experimental AAV virus via tail vein injections at least 7 days prior to CV study. Transmitters were turned on via magnets and SC vehicle injections were administered 2 h after the onset of the light phase for baseline measurements. At t = 24 h, mice were grouped if needed and SC compound injections began. Stressors were allowed only from 9:00 AM to 11:00 AM during the light phase, with continuous sampling throughout the day. Measurements of pulse pressure, arterial pressures, and heart rate values were extracted with the DataQuest A.R.T. 4.1 software and averaged into 3-hour bins for analysis.

[1] = Pharmacokinetic study in WT DIO mice dosed with control or Glp1r expressing AAV; assay type: in vivo, mouse; details: Glp1r AAV treated vs control groups; Figure 2K
Protocol: Male C57Bl6 mice were randomized and evenly distributed to test groups (n = 8 per group) according to body weight. Animals received tail vein injection of the control AAV or mGLP-1R expressing AAV at a dose of 10^12 GC per mouse on day −7 for each study. […] Treatments were administered via daily SC injection for the duration of the study; dosage is indicated within each figure. Dose escalation regimens for each peptide were determined based on previously published studies. Body weight and food intake was measured every other day throughout the study.

hGLP-1R = target: T1, hGLP-1R (Homo sapiens, UniProt P43220); details: cited from earlier work
T1 construct: expressed in transfected cells
Description: Second, agonism of the ectopic, hepatic GLP-1R creates a novel mechanism of drug clearance and may have effects on biodistribution.

T1 sequence (P43220 24-463): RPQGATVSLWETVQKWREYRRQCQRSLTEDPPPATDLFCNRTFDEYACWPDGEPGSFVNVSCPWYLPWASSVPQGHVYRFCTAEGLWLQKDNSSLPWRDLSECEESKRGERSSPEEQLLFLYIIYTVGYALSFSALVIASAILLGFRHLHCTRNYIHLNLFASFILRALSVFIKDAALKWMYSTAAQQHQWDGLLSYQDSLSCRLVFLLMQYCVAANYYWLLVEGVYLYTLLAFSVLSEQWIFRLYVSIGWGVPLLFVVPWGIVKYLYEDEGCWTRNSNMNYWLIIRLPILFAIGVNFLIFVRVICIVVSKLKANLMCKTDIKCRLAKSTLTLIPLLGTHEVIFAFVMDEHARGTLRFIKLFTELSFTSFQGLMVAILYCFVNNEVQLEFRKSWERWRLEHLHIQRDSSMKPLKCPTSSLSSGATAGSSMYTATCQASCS

Compound | Heart rate effect of semaglutide + Glp1r AAV (C57Bl6 mice) | semaglutide clearance with ectopic hepatic GLP-1R [1] | GLP-1R internalization profile (hGLP-1R)
CC[C@H](C)[C@H](NC(=O)[C@H](Cc1ccccc1)NC(=O)[C@H](CCC(=O)O)NC(=O)[C@H](CCCCNC(=O)COCCOCCNC(=O)COCCOCCNC(=O)CC[C@H](NC(=O)CCCCCCCCCCCCCCCCC(=O)O)C(=O)O)NC(=O)[C@H](C)NC(=O)[C@H](C)NC(=O)[C@H](CCC(N)=O)NC(=O)CNC(=O)[C@H](CCC(=O)O)NC(=O)[C@H](CC(C)C)NC(=O)[C@H](Cc1ccc(O)cc1)NC(=O)[C@H](CO)NC(=O)[C@H](CO)NC(=O)[C@@H](NC(=O)[C@H](CC(=O)O)NC(=O)[C@H](CO)NC(=O)[C@@H](NC(=O)[C@H](Cc1ccccc1)NC(=O)[C@@H](NC(=O)CNC(=O)[C@H](CCC(=O)O)NC(=O)C(C)(C)NC(=O)[C@@H](N)Cc1cnc[nH]1)[C@@H](C)O)[C@@H](C)O)C(C)C)C(=O)N[C@@H](C)C(=O)N[C@@H](Cc1c[nH]c2ccccc12)C(=O)N[C@@H](CC(C)C)C(=O)N[C@H](C(=O)N[C@@H](CCCNC(=N)N)C(=O)NCC(=O)N[C@@H](CCCNC(=N)N)C(=O)NCC(=O)O)C(C)C [semaglutide] | reduces this effect | significant increase in semaglutide clearance | –
tirzepatide | – | – | low receptor internalising profile
